{
  "source": "patent US20130136724A1",
  "about": "“PIG FEED, AND METHOD FOR FEEDING SAME” (Kaneka Corporation, priority 2010, published 2013)",
  "type_in_all_cases": "in vivo, swine",
  "key": {"mother sows [1]": {"tested_on": "mother sows", "test": "Coenzyme Q10 fed to mother sows in early, middle or latter pregnancy, farrowing rate and number of weaned piglets (Example 4)", "settings": "for Number of weaned piglets (average per mother sow): 100 ppm in feed of mother sows", "source_text": "Test groups E to G were fed with a feed prepared by adding coenzyme Q10 at a concentration of 100 ppm to a normal feed for mother sows (crude protein 15.0% or more, crude fat 2.0% or more, crude fiber 5.0% or less, crude ash 8.0% or less, calcium 0.6% or more, phosphorus 0.4% or more, TDN 74.0% or more) in early pregnancy period (test group […]), middle pregnancy period (test group F) or latter pregnancy period (test group G), and were fed only with the normal feed for mother sows in the other periods. A control group was fed only with the normal feed for mother sows throughout the entire pregnancy period. The “early pregnancy” refers to the period from mating until the 38th day, the “middle pregnancy” refers to the period from the 39th day until the 76th day after mating, and the “latter pregnancy” refers to the period (about 38 days) from the 77th day after mating until parturition. Although whether sows are pregnant can be determined by sonography generally on the 25th or 26th day after mating, the test feeding was started without checking whether the mother sows were pregnant in this test. Sows that were found not to be pregnant later were eliminated from the test. Coenzyme Q10 was not administered to the mother sows during lactation and piglets born to the mother sows. Each of control and test groups consisted of five mother sows per test, and the same test was repeated three times. Consequently, 15 sows in total were tested per group. Primiparous sows were not used, and only multiparous sows (para 2 to 10) were used for the test. A coenzyme Q10-containing premix was prepared by adding coenzyme Q10 to defatted rice bran to a concentration of 1/60. This premix was added to the normal feed with a measuring spoon (15 g/spoon) to the above-mentioned coenzyme Q10 concentrations. The feeds thus prepared were fed in a common manner. The amount of the feed fed to each mother sow was 2.5 kg/day in average in all the groups. The mother sows and piglets born to the mother sows were reared in accordance with rearing management standards of the farm. The respective groups were evaluated based on the number of piglets (the number of total births) per mother sow, and the number of living piglets among them (the number of live births), and the number of piglets that survived to weaning (the number of weaned piglets)."}, "mother sows [2]": {"tested_on": "mother sows", "test": "Interval of recurrent estrous of coenzyme Q10-fed mother sows (Example 6)", "settings": "100 ppm in feed", "procedure": "A coenzyme Q10-fed test group was fed with a feed prepared by adding coenzyme Q10 at a concentration of 100 ppm to a normal feed for mother sows (Kyodo Shiryo Co., Ltd.) for a test period (four months). A control group was fed with only the normal feed for mother sows. Estrous cycles were evaluated by observing whether sows were in estrus for three months from one month after the start of the test until the end of the test. The test group consisted of 1055 mother sows, and the control group consisted of 1022 sows."}, "mother sows [3]": {"tested_on": "mother sows", "test": "Feed test in mother sows, coenzyme Q10 60 ppm in feeds for eight months (Example 1)", "procedure": "About 160 mother sows from an actual swine farm were used and the study group was fed with feeds (coenzyme Q content in all feeds: 60 ppm) which were prepared by mixing coenzyme Q10 in normal feeds for mother sows (“ecobreed” during pregnancy, “ecolitter” during lactation). This feed test continued for eight months in which feeding to all the mother sows was simultaneously started and simultaneously finished. Before and after the test period, only the original feeds for mother sows were fed. In this test of feeding to the sows at pregnancy period, as the pregnancy period of sows continues 114 days and the interval to the next conception after parturition is about 31 days, it is apparent that in this test, coenzyme Q10 was administered to the mother sows in various stages of pregnancy or lactation which include a specific period in latter pregnancy, the entire pregnancy period, periods prior to or after mating, and a period from mating to early pregnancy. The mother sows were reared and managed in a common manner. In order to confirm that coenzyme Q10 was mixed in the feeds for mother sows, about 100 g of each coenzyme Q10-containing test feed were sampled from three points of different feeders after one week from the preparation thereof in the test period and the each sample was analyzed."}, "piglets": {"tested_on": "piglets", "test": "Feeding coenzyme Q10 to piglets of coenzyme Q10-fed mother sows through weaning, piglet and fattening periods (Example 2)", "settings": "piglets fed about 80 ppm in weaning period feed, vs control group", "source_text": "The piglets of the mother sows to which coenzyme Q10 had been administered in the test of Example 1 were fed with the following feeds: a feed prepared by adding coenzyme Q10 at about 80 ppm to a normal feed (“Healthy Pig” (registered trademark)) for the weaning period; and feeds prepared by adding coenzyme Q10 at 40 ppm to normal feeds (“Take Five” for the former half of the piglet period, “Nobita kun” for the latter half of the piglet period, and “NIC Niku Buta EX” for the fattening period). The piglets were reared and managed in a common manner. In all the periods, control groups were set up for each to which coenzyme Q10 was not administered, and the control group was also reared in a common manner.\nThe “weaning period” refers to the period from the 3rd day until 26th day after birth, and the “piglet period” refers to the period from the 27th day until the 84th day after birth."}, "mother sows [4]": {"tested_on": "mother sows", "test": "Fertility of second mating of coenzyme Q10-fed mother sows (Example 5)", "settings": "100 ppm in feed, four months, pregnancy determined on the 28th day after second mating", "procedure": "A coenzyme Q10-fed test group was fed with a feed prepared by adding coenzyme Q10 at a concentration of 100 ppm to a normal feed for mother sows (Kvodo Shiryo Co., Ltd.) for a test period (four months). A control group was fed with only the normal feed for mother sows. The sows were tested for pregnancy on the 28th day after mating, and unfertilized sows were mated again. The fertility was evaluated as a pregnancy rate for three months from one month after the start of the test until the end of the test. Whether the sows were pregnant (fertilized) was determined by sonography or the like on the 28th day after first mating and second mating. The test group consisted of 952 mother sows, and the control group consisted of 992 mother sows."}, "mother sows [5]": {"tested_on": "mother sows", "test": "Coenzyme Q10 fed to mother sows in middle or late pregnancy, growth of postnatal piglets (Example 3)", "source_text": "Test groups A to D were fed with feeds prepared by adding coenzyme Q10 at 100 ppm or 400 ppm to a normal feed for mother sows (crude protein 15.0% or more, crude fat 2.0% or more, crude fiber 5.0% or less, crude ash 8.0% or less, calcium 0.6% or more, phosphorus 0.4% or more, TDN 74.0% or more) in middle pregnancy (test groups A and B) or late pregnancy (test groups C and D), and were fed only with the normal feed for mother sows in the other periods. A control group was fed only with the normal feed for mother sows throughout the entire pregnancy period. Here, the term of “middle pregnancy” refers to the period from the 39th day until the 76th day after mating, and the term of “latter pregnancy” refers to the period (about 38 days) from the 77th day after mating until parturition. The test continued for about five and a half months. Also, coenzyme Q10 was not administered to the mother sows during lactation and the piglets born to the mother sows. As for head count of mother sows, each of control and test groups consisted of five mother sows per test, and the same test was repeated three times. Consequently, […]. Primiparous sows were not used, and only multiparous sows (para 2 to 10) were used for the test. A coenzyme Q10-containing premix was prepared by adding coenzyme Q10 to defatted rice bran to be a concentration of 1/60, and was mixed with the normal feed with a measuring spoon (15 g/spoon) to the above-mentioned coenzyme Q10 concentrations. The feeds thus prepared were fed in a common manner. The average amount of the feed per mother sow was 2.5 kg/day in all the groups. The mother sows and the piglets born to the mother sows were reared in accordance with rearing management standards of the farm. The piglets born to the mother sows of the respective groups were evaluated for weight at birth, weight at weaning, and the like."}, "[6]": {"test": "Coenzyme Q10 content in colostrum of mother sows by HPLC (Example 1)", "settings": "colostrum (first day) of mother sows, 60 ppm in feed, vs periods without administration", "procedure": "About 160 mother sows from an actual swine farm were used and the study group was fed with feeds (coenzyme Q content in all feeds: 60 ppm) which were prepared by mixing coenzyme Q10 in normal feeds for mother sows (“ecobreed” during pregnancy, “ecolitter” during lactation). This feed test continued for eight months in which feeding to all the mother sows was simultaneously started and simultaneously finished. Before and after the test period, only the original feeds for mother sows were fed. […] Additionally, in order to analyze the coenzyme Q10 content in milk of mother sows during lactation, about 15 ml of colostrum (first day) were sampled in a 50-ml disposal tube from six mother sows during lactation in the periods in which coenzyme Q10 was administered to them or the periods in which coenzyme Q10 was not administered to them, and the samples were analyzed for coenzyme Q10 and the ratio of the reduced form and the oxidized form of coenzyme Q10 by HPLC."}, "[7]": {"settings": "early pregnancy, 100 ppm, compared to the control group"}, "[8]": {"settings": "60 ppm in feed, vs periods in which coenzyme Q10 was not administered"}, "[9]": {"settings": "piglets born to mother sows fed 60 ppm, vs piglets reared in a conventional manner"}},
  "data": [
    {"compound": "COC1=C(OC)C(=O)C(C/C=C(\\C)CC/C=C(\\C)CC/C=C(\\C)CC/C=C(\\C)CC/C=C(\\C)CC/C=C(\\C)CC/C=C(\\C)CC/C=C(\\C)CC/C=C(\\C)CCC=C(C)C)=C(C)C1=O", "note": "[coenzyme Q10]", "values": [
      {"measurement": "Number of weaned piglets (average per mother sow)", "setting": "mother sows [1]; Test group E: early pregnancy", "value": 10.4},
      {"measurement": "Number of weaned piglets (average per mother sow)", "setting": "mother sows [1]; Test group F: middle pregnancy", "value": 9.6},
      {"measurement": "Number of weaned piglets (average per mother sow)", "setting": "mother sows [1]; Test group G: late pregnancy", "value": 9.7},
      {"measurement": "increase in the average number of weaned piglets per mother sow", "setting": "mother sows [1]; [7]", "value": "not less than 1"},
      {"measurement": "increase in the number of live births", "setting": "mother sows [1]; [7]", "value": "not less than 1"},
      {"measurement": "increase in the number of total births", "setting": "mother sows [1]; [7]", "value": "not less than 1"},
      {"measurement": "interval of recurrent estrous", "setting": "mother sows [2]; four months", "value": 5.59, "unit": "days"},
      {"measurement": "shortening of the interval of recurrent estrous", "setting": "mother sows [2]; test group vs control group", "value": 0.33, "unit": "days"},
      {"measurement": "frequency of albinism", "setting": "mother sows [3]; [8]", "value": "decreased"},
      {"measurement": "frequency of mummified", "setting": "mother sows [3]; [8]", "value": "decreased"},
      {"measurement": "number of milk-fed piglets", "setting": "mother sows [3]; [8]", "value": "increased"},
      {"measurement": "number of total births", "setting": "mother sows [3]; [8]", "value": "increased"},
      {"measurement": "number of weaned piglets", "setting": "mother sows [3]; [8]", "value": "increased"},
      {"measurement": "body weight of piglets after three weeks from birth", "setting": "mother sows [3]; [9]", "value": "heavier"},
      {"measurement": "episodes of diarrhea in piglets", "setting": "mother sows [3]; [9]", "value": "less episodes"},
      {"measurement": "number of weaned piglets per mother sow", "setting": "piglets", "value": "larger"},
      {"measurement": "fertility of second mating (pregnancy rate)", "setting": "mother sows [4]", "value": 94, "unit": "%"},
      {"measurement": "Weight at weaning (average, kg)", "setting": "mother sows [5]; Test group A: middle pregnancy, 100 ppm in feed of mother sows", "value": 8.37, "unit": "kg"},
      {"measurement": "Weight at weaning (average, kg)", "setting": "mother sows [5]; Test group B: middle pregnancy, 400 ppm in feed of mother sows", "value": 8.26, "unit": "kg"},
      {"measurement": "Weight at weaning (average, kg)", "setting": "mother sows [5]; Test group C: late pregnancy, 100 ppm in feed of mother sows", "value": 8.55, "unit": "kg"},
      {"measurement": "Weight at weaning (average, kg)", "setting": "mother sows [5]; Test group D: late pregnancy, 400 ppm in feed of mother sows", "value": 8.51, "unit": "kg"},
      {"measurement": "weight at birth", "setting": "mother sows [5]; test groups (100 or 400 ppm, middle or late pregnancy) vs control group", "value": "not so different"},
      {"measurement": "coenzyme Q10 content in colostrum", "setting": "[6]", "value": "apparently higher"}
    ]}
  ]
}
